The source of these data is patent US20120156307A1, “MEDICAL USES OF NANOCLUSTERED WATER” (priority 2010, published 2012).

A word on the inhibition: it is how much of the control response was suppressed.

Read-outs that look alike come from different tables or passages of the source.

Series [1] concerns peripheral blood mononuclear cells (PBMC). Description: In vitro inhibition of PBMC proliferation. The format is cell-based.
The subject of series [2] is in vitro reconstituted human 3D skin with a corneum layer. The note with it: 1% SLS, 10% Glycolic acid, cited from earlier work.
The test system is the same in series [3]. Description: Keratolytic effect, MTT assay on reconstituted human 3D skin. The class given is cell-based. On the procedure: The assay was carried out on a three-dimensional reconstituted human skin model, composed of human epidermal keratinocytes that have been proliferating and differentiating in vitro in peculiar conditions in order to build up a well-differentiated stratum corneum. […] When the damage of the corneum layer is stronger, as it happens with keratolytic agents, the cytotoxic effects of the germinative layer are faster to develop. […] Thirty μL of each substance have been applied to the cell culture and incubation at 37° C. was performed for 15 and 120 minutes respectively.

In the case of `C[C@H]1C[C@H]2[C@@H]3CCC4=CC(=O)C=C[C@]4(C)[C@@]3(F)[C@@H](O)C[C@]2(C)[C@@]1(O)C(=O)CO` [Betamethasone, betamethasone], the inhibition at 0.01 µM worked out at 87.7% in series [1] (Batch 1, 10 nM); 85.7% in series [1] (Batch 2, 10 nM); 79.4% in series [1] (Batch 3, 10 nM); 88.5% in series [1] (Batch 4, 10 nM); 85.3% in series [1] (Mean, 10 nM).

In the case of `CCCCCCCCCCCCOS(=O)(=O)[O-].[Na+]` [SLS], the “cell death, as generally stated for the reference agents” value in series [2] (after 15') was “does not cause any cell death”; in series [2] (after 2 h) it was “about 30%”. Further, in series [3] (after 2 hours, 1% SLS), the “cell death (cytotoxic effect)” value was 27.69%.

With `O=C(O)CO` [glycolic acid], the “cell death, as generally stated for the reference agents” value in series [2] (after 15') is given as 50%; in series [2] (after 2 h), 90%. Besides, the cell death in series [3] (at 15', 10% glycolic acid) was found to be 45.86%.
